Laboratory results reported in ChEMBL document CHEMBL3045269, “Anti-leukemic activity of sulfonoquinovosyldiacylglyceride (SQDG): a constituent of Azadirachta indica leaves” (Med Chem Res, 2013).

How the values were obtained:
Type in all cases: functional
U-937 [1] = assay: Cytotoxicity against Homo sapiens (human) U937 cells assessed as growth inhibition at 2 ug/ml after 48 hr by MTT assay relative to untreated control; details: U-937, 48 h, read-out: GI
K562 [2] = assay: Cytotoxicity against Homo sapiens (human) K562 cells assessed as growth inhibition at 2 ug/ml after 24 hr by MTT assay relative to untreated control; details: K562, 24 h, read-out: GI
U-937 [3] = assay: Cytotoxicity against Homo sapiens (human) U937 cells assessed as growth inhibition at 2 ug/ml after 24 hr by MTT assay relative to untreated control; details: U-937, 24 h, read-out: GI
K562 [4] = assay: Cytotoxicity against Homo sapiens (human) K562 cells assessed as growth inhibition at 2 ug/ml after 48 hr by MTT assay relative to untreated control; details: K562, 48 h, read-out: GI

## Nc1ccn([C@@H]2O[C@H](CO)[C@@H](O)[C@@H]2O)c(=O)n1 [CYTARABINE]
U-937 [1]
  inhibition of growth at 2 µg/mL: 85.1%
K562 [2]
  inhibition of growth at 2 µg/mL: 39.9%
U-937 [3]
  inhibition of growth at 2 µg/mL: 59.9%
K562 [4]
  inhibition of growth at 2 µg/mL: 65.1%
